Data taken from PubChem BioAssay (NCI).
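Dose response: 5 concentrations. Exposure: 48 h. Format: 96-well plates. Endpoint: linear interpolation; highest concentration if not reached. At the GI50, growth is halved. TGI marks complete inhibition of growth.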

Assays:
Assay in all cases: DTP human tumour cell line panel, 48 h
786-0 renal = system: 786-0 renal
A498 renal = system: A498 renal
A549 NSCLC = system: A549 NSCLC
ACHN renal = system: ACHN renal
BT-549 breast = system: BT-549 breast
CAKI-1 renal = system: CAKI-1 renal
CCRF-CEM leukemia = system: CCRF-CEM leukemia
COLO 205 colon = system: COLO 205 colon
DU-145 prostate = system: DU-145 prostate
EKVX NSCLC = system: EKVX NSCLC
HCC-2998 colon = system: HCC-2998 colon
HCT-116 colon = system: HCT-116 colon
HCT-15 colon = system: HCT-15 colon
HL-60(TB) leukemia = system: HL-60(TB) leukemia
HOP-62 NSCLC = system: HOP-62 NSCLC
HOP-92 NSCLC = system: HOP-92 NSCLC
HS 578T breast = system: HS 578T breast
HT29 colon = system: HT29 colon
IGROV1 ovarian = system: IGROV1 ovarian
K-562 leukemia = system: K-562 leukemia
KM12 colon = system: KM12 colon
LOX IMVI melanoma = system: LOX IMVI melanoma
M14 melanoma = system: M14 melanoma
MALME-3M melanoma = system: MALME-3M melanoma
MCF7 breast = system: MCF7 breast
MDA-MB-231 breast = system: MDA-MB-231 breast
MDA-MB-435 = system: MDA-MB-435
MDA-MB-468 breast = system: MDA-MB-468 breast
MOLT-4 leukemia = system: MOLT-4 leukemia
NCI-H226 lung = system: NCI-H226 lung
NCI-H23 lung = system: NCI-H23 lung
NCI-H460 lung = system: NCI-H460 lung
NCI-H522 lung = system: NCI-H522 lung
NCI/ADR-RES ovarian = system: NCI/ADR-RES ovarian
OVCAR-3 ovarian = system: OVCAR-3 ovarian
OVCAR-4 ovarian = system: OVCAR-4 ovarian
OVCAR-5 ovarian = system: OVCAR-5 ovarian
OVCAR-8 ovarian = system: OVCAR-8 ovarian
PC-3 prostate = system: PC-3 prostate
RPMI-8226 leukemia = system: RPMI-8226 leukemia
RXF 393 renal = system: RXF 393 renal
SF-268 CNS = system: SF-268 CNS
SF-295 CNS = system: SF-295 CNS
SF-539 CNS = system: SF-539 CNS
SK-MEL-2 melanoma = system: SK-MEL-2 melanoma
SK-MEL-28 melanoma = system: SK-MEL-28 melanoma
SK-MEL-5 melanoma = system: SK-MEL-5 melanoma
SK-OV-3 ovarian = system: SK-OV-3 ovarian
SN12C renal = system: SN12C renal
SNB-19 CNS = system: SNB-19 CNS
SNB-75 CNS = system: SNB-75 CNS
SR leukemia = system: SR leukemia
SW-620 colon = system: SW-620 colon
T-47D breast = system: T-47D breast
TK-10 renal = system: TK-10 renal
U251 CNS = system: U251 CNS
UACC-257 melanoma = system: UACC-257 melanoma
UACC-62 melanoma = system: UACC-62 melanoma
UO-31 renal = system: UO-31 renal

With `O=C(CNc1nc(-c2ccccc2)cs1)Nc1ccc([N+](=O)[O-])cc1` the GI50 (786-0 renal) was 4.1 µM, the TGI (786-0 renal) was 14.1 µM and the GI50 (A498 renal) was 16.9 µM. It also gave a TGI (A498 renal) of 32.3 µM, a GI50 (A549 NSCLC) of 9.71 µM and a TGI (A549 NSCLC) of 24.4 µM. It also gave a GI50 (ACHN renal) of 2.39 µM, a TGI (ACHN renal) of 6.98 µM and a GI50 (BT-549 breast) of 2.35 µM. The TGI (BT-549 breast) was 10.1 µM, the GI50 (CAKI-1 renal) was 5.26 µM and the TGI (CAKI-1 renal) was 18.3 µM. It also gave a GI50 (CCRF-CEM leukemia) of 2.71 µM, a TGI (CCRF-CEM leukemia) of 13.4 µM and a GI50 (COLO 205 colon) of 4.59 µM. The TGI (COLO 205 colon) was 15.9 µM, the GI50 (DU-145 prostate) was 10.9 µM and the TGI (DU-145 prostate) was 25.4 µM. For the same compound, the GI50 (EKVX NSCLC) was 3.8 µM, the TGI (EKVX NSCLC) was 14.6 µM and the GI50 (HCC-2998 colon) was 3.5 µM. It also gave a TGI (HCC-2998 colon) of 12.9 µM, a GI50 (HCT-116 colon) of 3.22 µM and a TGI (HCT-116 colon) of 14.2 µM. The GI50 (HCT-15 colon) was 3.47 µM, the TGI (HCT-15 colon) was 13.1 µM and the GI50 (HL-60(TB) leukemia) was 2.97 µM. For the same compound, the TGI (HL-60(TB) leukemia) was 10.6 µM, the GI50 (HOP-62 NSCLC) was 14.4 µM and the TGI (HOP-62 NSCLC) was 35 µM. It also gave a GI50 (HOP-92 NSCLC) of 6.65 µM, a TGI (HOP-92 NSCLC) of 25.1 µM and a GI50 (HS 578T breast) of 10.2 µM. The TGI (HS 578T breast) was over 100 µM, the GI50 (HT29 colon) was 3.73 µM and the TGI (HT29 colon) was 15.8 µM. The GI50 (IGROV1 ovarian) was 3.84 µM, the TGI (IGROV1 ovarian) was 16 µM and the GI50 (K-562 leukemia) was 3.26 µM. The TGI (K-562 leukemia) was over 100 µM, the GI50 (KM12 colon) was 8.27 µM and the TGI (KM12 colon) was 20.7 µM. For the same compound, the GI50 (LOX IMVI melanoma) was 2.2 µM, the TGI (LOX IMVI melanoma) was 11.1 µM and the GI50 (M14 melanoma) was 5.07 µM. The TGI (M14 melanoma) was 19.7 µM, the GI50 (MALME-3M melanoma) was 2.29 µM and the TGI (MALME-3M melanoma) was 6.21 µM. The GI50 (MCF7 breast) was 2.9 µM, the TGI (MCF7 breast) was 12.1 µM and the GI50 (MDA-MB-231 breast) was 3.07 µM. The TGI (MDA-MB-231 breast) was 12.5 µM, the GI50 (MDA-MB-435) was 6.79 µM and the TGI (MDA-MB-435) was 19.2 µM. It also gave a GI50 (MDA-MB-468 breast) of 1.55 µM, a TGI (MDA-MB-468 breast) of 3.16 µM and a GI50 (MOLT-4 leukemia) of 3.66 µM. For the same compound, the TGI (MOLT-4 leukemia) was 23 µM, the GI50 (NCI-H226 lung) was 12.5 µM and the TGI (NCI-H226 lung) was 28.3 µM. It also gave a GI50 (NCI-H23 lung) of 3.32 µM, a TGI (NCI-H23 lung) of 13.7 µM and a GI50 (NCI-H460 lung) of 10.2 µM. The TGI (NCI-H460 lung) was 23.8 µM, the GI50 (NCI-H522 lung) was 1.9 µM and the TGI (NCI-H522 lung) was 3.92 µM. It also gave a GI50 (NCI/ADR-RES ovarian) of 3.77 µM, a TGI (NCI/ADR-RES ovarian) of 20.4 µM and a GI50 (OVCAR-3 ovarian) of 3.65 µM. The TGI (OVCAR-3 ovarian) was 13.3 µM, the GI50 (OVCAR-4 ovarian) was 3.52 µM and the TGI (OVCAR-4 ovarian) was 12.8 µM. It also gave a GI50 (OVCAR-5 ovarian) of 7.22 µM, a TGI (OVCAR-5 ovarian) of 20.1 µM and a GI50 (OVCAR-8 ovarian) of 11.1 µM. The TGI (OVCAR-8 ovarian) was 28.2 µM, the GI50 (PC-3 prostate) was 4.75 µM and the TGI (PC-3 prostate) was 23.2 µM. The GI50 (RPMI-8226 leukemia) was 3.25 µM, the TGI (RPMI-8226 leukemia) was 19.8 µM and the GI50 (RXF 393 renal) was 2.77 µM. The GI50 (SF-268 CNS) was 4.82 µM, the TGI (SF-268 CNS) was 29.5 µM and the GI50 (SF-295 CNS) was 8.63 µM. It also gave a TGI (SF-295 CNS) of 21.6 µM, a GI50 (SF-539 CNS) of 3.19 µM and a TGI (SF-539 CNS) of 10.2 µM. It also gave a GI50 (SK-MEL-2 melanoma) of 14.2 µM, a TGI (SK-MEL-2 melanoma) of 30.5 µM and a GI50 (SK-MEL-28 melanoma) of 10.3 µM. For the same compound, the TGI (SK-MEL-28 melanoma) was 21.9 µM, the GI50 (SK-MEL-5 melanoma) was 5.82 µM and the TGI (SK-MEL-5 melanoma) was 18.6 µM. For the same compound, the GI50 (SK-OV-3 ovarian) was 16.4 µM, the TGI (SK-OV-3 ovarian) was 40.1 µM and the GI50 (SN12C renal) was 3.37 µM. For the same compound, the TGI (SN12C renal) was 13.6 µM, the GI50 (SNB-19 CNS) was 10.7 µM and the TGI (SNB-19 CNS) was 22.5 µM. The GI50 (SNB-75 CNS) was 3.16 µM, the TGI (SNB-75 CNS) was 15.5 µM and the GI50 (SR leukemia) was 6.62 µM. It also gave a TGI (SR leukemia) of 41.3 µM, a GI50 (SW-620 colon) of 5.01 µM and a TGI (SW-620 colon) of 18 µM. The GI50 (T-47D breast) was 4.23 µM, the TGI (T-47D breast) was 21.3 µM and the GI50 (TK-10 renal) was 11.1 µM. It also gave a TGI (TK-10 renal) of 24.2 µM, a GI50 (U251 CNS) of 2.85 µM and a TGI (U251 CNS) of 11.1 µM. For the same compound, the GI50 (UACC-257 melanoma) was 8.41 µM, the TGI (UACC-257 melanoma) was 21.8 µM and the GI50 (UACC-62 melanoma) was 4.41 µM. For the same compound, the TGI (UACC-62 melanoma) was 17 µM, the GI50 (UO-31 renal) was 4.58 µM and the TGI (UO-31 renal) was 18.1 µM.
